Holding throughout (format): in vivo, rat
The test system of assay [1] is carrageenan-induced hyperalgesia in rats. Nature of the assay: Carrageenan-induced hyperalgesia, mechanical nociceptive threshold after topical administration. Conditions: male rats; carrageenan i.d.; 30 min later topical indomethacin 1 μg/μl with protamine 2 μg/μl, 30 μL; P<0.0001. The procedure: Male rats were treated with carrageenan (0.1% in 1 μg/5 μL) intradermally (i.d.), into the dorsum of the hind paw. Thirty minutes after the carrageenan administration, when hyperalgesia was established, animals received indomethacin combined with protamine or protamine alone, each in a volume of 30 μL, topically on the dorsum of one hind paw, at the site of the i.d. injection. Protamine was used at a concentration of 2 μg/μl and indomethacin was used at a concentration of 1 μg/μl. Mechanical nociceptive threshold was evaluated before carrageenan administration, and again 30 and 90 minutes after. […] Two-way repeated measures ANOVA, F(2.14)=40.46, P<0.0001. Bonferroni's multiple comparison post-hoc test. Data shown as mean±SEM; n=3 paws, per group.

Assay [2] concerns PGE2 hyperalgesia in rats. The experiment in a line: PGE2-induced hyperalgesia, mechanical nociceptive threshold after topical administration. The following applies: male rats; PGE2 100 ng/5 μL i.d.; 10 min later topical morphine 0.1 μg/μl with protamine 2 μg/μl, 30 μL; 30 and 60 min; P=0.0366. How it is done: Male rats received PGE2 (100 ng/5 μL, intradermally, i.d.), on the dorsum of the hind paw followed, 10 minutes later, by morphine combined with protamine or protamine alone (dissolved in distillated water-dH20) or morphine (using saline as a vehicle), each in a volume of 30 μL, was administered topically on the dorsum of one hind paw, at the site of the i.d. PGE2 injection. Protamine was used at a concentration of 2 μg/μl and morphine was used at a concentration of 0.1 μg/μl. Mechanical nociceptive threshold was evaluated before intradermal PGE2 and again 30 and 60 min after topical administration. […] Two-way repeated measures ANOVA, F(2.8)=4.25, *P=0.0366. Bonferroni's multiple comparison post-hoc test. Data shown as mean±SEM; n=3 paws, per group.

For assay [3], the system named is rats with chemotherapy-induced painful peripheral neuropathy (CIPN). Nature of the assay: Oxaliplatin-induced hyperalgesia (CIPN), mechanical nociceptive threshold after topical administration. Conditions: oxaliplatin 2 mg/kg i.v. day 0, day 14 topical morphine 0.1 μg/μl with protamine 2 μg/μl, 30 μL on dorsum of hind paw, 30 and 60 min, P<0.0001. How it is done:
Female rats received oxaliplatin (2 mg/kg, i.v.) on day 0. On day 14, at which time oxaliplatin-induced hyperalgesia was established, morphine combined with protamine or protamine alone (dissolved in distillated water-dH20) or morphine (using saline as a vehicle), each in a volume of 30 μL, was administered topically on the dorsum of one hind paw, at the site of nociceptive threshold testing. Protamine was used at a concentration of 2 μg/μl and morphine was used at a concentration of 0.1 μg/μl. Mechanical nociceptive threshold was evaluated before and 14 days after oxaliplatin administration, and again 30 and 60 minutes after topical drug administration. […] Two-way repeated measures ANOVA, F(6.18)=26.85, P<0.0001. Bonferroni's multiple comparison post-hoc test. n=3 per group.
Male rats received oxaliplatin (2 mg/kg, i.v.) on day 0. On day 14, at which time oxaliplatin-induced hyperalgesia was established, morphine combined with protamine or protamine alone, each in a volume of 30 μL, was administered topically on the dorsum of one hind paw, at the site of nociceptive threshold testing. Protamine was used at a concentration of 2 μg/μl and morphine was used at a concentration of 0.1 μg/μl. Mechanical nociceptive threshold was evaluated before and 14 days after oxaliplatin administration, and again 30 and 60 minutes after topical administration. […]

Regarding `COc1ccc2c(c1)c(CC(=O)O)c(C)n2C(=O)c1ccc(Cl)cc1` [indomethacin], the “effect on carrageenan-induced hyperalgesia (mechanical nociceptive threshold)” value in assay [1] is listed as “attenuated carrageenan-induced hyperalgesia”.

Turning to `CN1CC[C@]23c4c5ccc(O)c4O[C@H]2[C@@H](O)C=C[C@H]3[C@H]1C5` [morphine], the “effect on PGE2-hyperalgesia (mechanical nociceptive threshold)” value in assay [2] is recorded as “significant attenuation of PGE2-hyperalgesia”. The “effect on oxaliplatin-induced hyperalgesia (mechanical nociceptive threshold)” value in assay [3] (female rats) and in assay [3] (male rats) was “attenuated oxaliplatin-induced hyperalgesia” each time.

Values taken from patent publication US20250017846A1, “TOPICAL ANALGESICS” (THE REGENTS OF THE UNIVERSITY OF CALIFORNIA, priority 2023, published 2025).
